Consider 2 compounds from publication PMC4128046, “Effect of a toggle switch mutation in TM6 of the human adenosine A3 receptor on Gi protein-dependent signalling and Gi-independent receptor internalization” (British Journal of Pharmacology, 2014).

Substitutions are numbered along the chain they refer to.

Common to all, as to type: cell-based
Assay [1] addresses T1, A3 W243F-YFP (Homo sapiens, UniProt P0DMS8, W243F).
T1 construct: Full length A3 W243F-YFP was excised and subcloned into a native pcDNA3.1 vector; expressed in transfected cells
T1 sequence (P0DMS8 1-318 W243F): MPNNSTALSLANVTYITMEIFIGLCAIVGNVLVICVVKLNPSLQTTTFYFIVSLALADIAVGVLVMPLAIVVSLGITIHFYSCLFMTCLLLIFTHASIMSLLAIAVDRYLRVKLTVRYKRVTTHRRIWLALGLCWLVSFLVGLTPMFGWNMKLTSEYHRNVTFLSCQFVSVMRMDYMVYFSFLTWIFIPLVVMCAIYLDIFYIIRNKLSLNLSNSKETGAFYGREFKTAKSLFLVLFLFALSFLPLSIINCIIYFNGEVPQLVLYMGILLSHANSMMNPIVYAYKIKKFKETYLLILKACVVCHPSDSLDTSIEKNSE
As to the kind of experiment: [3H]-cAMP accumulation assay, A3 W243F-YFP. The conditions noted are these: for inhibition of FSK-stimulated [3H]-cAMP accumulation after 5 h agonist stimulation / Emax: A3 W243F-YFP cells; for inhibition of FSK-stimulated [3H]-cAMP accumulation after 5 h agonist stimulation: 5 h stimulation, compared with 1 h; for Emax: read-out: Maximum response (% inhibition of 3 μM FSK), cAMP accumulation assay, 1 h stimulation. As to the method: On the day of analysis, cells were labelled with [^3H]-adenine (2 μCi·mL^−1) in a total volume of 600 μL per well for 2 h at 37°C/5% CO2 in normal growth medium. After 2 h, the [^3H]-adenine-containing medium was removed; cells washed once in serum-free medium and fresh serum-free medium, containing 10 μM rolipram, added. […] […] The assay was terminated by the addition of 50 μL concentrated HCl to each well. The levels of [^3H]-cAMP incorporated were measured by sequential Dowex and alumina chromatography and the efficiency of each column was determined by the recovery of [^14C]-cAMP as described by Donaldson et al. ([1988]).
(§1) A basal and FSK control was included in each separate concentration-response CRE-SPAP gene transcription assay and cAMP accumulation assay to allow the responses in each cell line to be expressed as an inhibition of FSK-stimulated SPAP production.
For orientation: Changes in cAMP serve as a functional read-out for many G protein-coupled receptors.

In assay [2] the target is T2, A3-YFP (Homo sapiens, UniProt P0DMS8).
T2 construct: cDNA encoding the full length human A3 receptor; expressed in transfected cells
T2 sequence (P0DMS8 1-318): T1 sequence (P0DMS8 1-318 W243F) with F243W
Nature of the assay: CRE-SPAP gene transcription assay, A3-YFP. The conditions noted are these: A3-YFP cells; for agonist-mediated inhibition of SPAP production after PTx pre-incubation: PTx 100 ng·mL−1 overnight, 3 μM FSK; for Emax: read-out: Maximum response (% inhibition of 10 μM FSK), CRE-SPAP assay. As to the method: One day before analysis, normal growth medium was removed from the cells and replaced with serum-free medium (DMEM/F12 containing 2 mM L-glutamine). Where applicable, PTx (100 ng·mL^−1) was added at this stage. On the day of the assay, the medium was removed and replaced with fresh serum-free medium containing the required concentration of the agonist, and cells were incubated for 1 h at 37°C/5% CO2. After 1 h, the required concentration of forskolin (FSK) was added, and cells were incubated for a further 5 h at 37°C/5% CO2. Following the 5 h incubation, all medium was removed from the cells, 40 μL of fresh serum-free medium was added to each well and cells incubated for a further 1 h at 37°C/5% CO2. The plates were then incubated at 65°C for 30 min, to destroy any endogenous alkaline phosphatases.
as §1

The target of assay [3] is T3, A3 W243F-vYc/β-arrestin2-vYnL (Homo sapiens, UniProt P0DMS8, W243F).
T3 construct: cDNA encoding the full length human A3 receptor; expressed in transfected cells; host or cells: CHO-K1 stably expressing β-arrestin2-vYnL, stably co-transfected with A3 W243F-vYc
As to the kind of experiment: BiFC of receptor with β-arrestin2 (automated imaging), A3 W243F-vYc. To be noted: A3 W243F-vYc/β-arrestin2-vYnL cells; for Maximal BiFC (%): percentage of 10 μM NECA in the cell line.

The target in assay [4] is T2, A3-YFP. As to the kind of experiment: Confocal imaging of receptor internalization and membrane YFP fluorescence, A3-YFP. The conditions noted are these: A3-YFP cells, 10 μM agonist. The method, then:
(§2) Live-cell BiFC imaging was performed on A3-vYc/β-arrestin2-vYnL and A3 W243F-vYc/β-arrestin2-vYnL cells grown in Nunc Labtek 8-well plates, and images obtained using a Zeiss 710 confocal microscope (Carl Zeiss GmbH, Jena, Germany) fitted with a 63× plan-Apochromat NA1.4 Ph3 oil-immersion objective. Live-cell imaging analysis was performed on A3-YFP or A3 W243F-YFP CRE-SPAP cells and transiently expressed SNAP-A3 or SNAP-A3 W243F grown in Nunc Labtek 8-well plates, and images obtained using a Zeiss LSM5 Exciter confocal microscope (Carl Zeiss GmbH) fitted with a 63× plan-Apochromat NA1.4 DIC oil-immersion objective. For both YFP, BiFC and BG-AF488 label, a 488 nm argon laser was used to excite the fluorophore and emission was detected using a BP505-530 filter. Cells expressing the SNAP-tagged receptors were labelled with 1 μM SNAP-surface BG-AF488 (New England Biolabs) in DMEM/F12 medium for 30 min at 37°C/5% CO2. Before all imaging experiments, normal growth medium or medium containing BG-AF488 was removed and cells were washed twice in HEPES-buffered saline solution (HBSS; 25 mM HEPES, 10 mM glucose, 146 mM NaCl, 5 mM KCl, 1 mM MgSO4, 2 mM sodium pyruvate, 1.3 mM CaCl2) and fresh HBSS was added for analysis. […] Images of A3-YFP and A3 W243F-YFP cells were taken with same pinhole diameter, laser power, gain and offset to allow comparison of YFP fluorescence. To obtain fluorescence intensity values, a region of interest was drawn around the plasma membrane of 10 cells per image in Zeiss AIM 4.2 software (Carl Zeiss GmbH).

Assay [5] concerns the target T1, A3 W243F-YFP. Nature of the assay: Confocal imaging of receptor internalization and membrane YFP fluorescence, A3 W243F-YFP. The conditions noted are these: A3 W243F-YFP cells, 10 μM agonist. The method, then:
as §2

T3 sequence (P32121 whole entry partner, one chain of several): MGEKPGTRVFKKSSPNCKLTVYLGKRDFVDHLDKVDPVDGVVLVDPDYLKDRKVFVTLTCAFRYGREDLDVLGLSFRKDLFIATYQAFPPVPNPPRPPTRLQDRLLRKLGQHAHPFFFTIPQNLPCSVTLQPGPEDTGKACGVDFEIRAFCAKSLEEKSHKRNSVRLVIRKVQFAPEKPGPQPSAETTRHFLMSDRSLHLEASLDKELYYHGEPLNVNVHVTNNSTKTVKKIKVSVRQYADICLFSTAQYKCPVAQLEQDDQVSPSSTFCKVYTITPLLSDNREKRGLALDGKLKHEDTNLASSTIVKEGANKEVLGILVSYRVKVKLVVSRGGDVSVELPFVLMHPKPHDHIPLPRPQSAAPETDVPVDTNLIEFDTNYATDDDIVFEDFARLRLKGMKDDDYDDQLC

On to `CCCCC#Cc1nc(NC)c2ncn([C@@H]3O[C@H](CO)[C@@H](O)[C@H]3O)c2n1` [HEMADO, 2-(1-hexynyl)-N-methyladenosine], for which the “inhibition of FSK-stimulated [3H]-cAMP accumulation after 5 h agonist stimulation” value on A3 W243F-YFP [1] was “very little inhibition”. Besides, the Emax came out at 43.2 ± 4.3% at A3 W243F-YFP [1] and 73.2 ± 7.7% at A3-YFP [2]. Also, the EC50 at A3 W243F-YFP [1] (read-out: pEC50 (cAMP accumulation assay) (converted)) was 9.55 nM; at A3-YFP [2] (5 h with FSK, read-out: pEC50 (CRE-SPAP assay) (converted)) it was 3.02 nM; in assay [3] (60 min, read-out: pEC50 (BiFC with β-arrestin2-vYnL) (converted)) it was 10.7 nM. The “agonist-mediated inhibition of SPAP production after PTx pre-incubation” value on A3-YFP [2] is “no HEMADO-mediated response was observed”. The “% maximal internalization vs. 10 μM NECA at 2 h (BiFC)” value in assay [3] (10 μM, 2 h) was determined as 58.0 ± 5.8%. In addition, the “Maximal BiFC (%)” value in assay [3] (60 min) is 54.5 ± 6.1%. The figures for the “internalization of the receptor seen in confocal images” value (shortened to “internalization of the receptor seen”) at A3-YFP [4] and at A3 W243F-YFP [5] were “substantial internalization” and “unable to stimulate internalization”, respectively. Moreover, the “reduction in membrane fluorescence” value at A3-YFP [4] was 50%; on A3 W243F-YFP [5] it was “no significant change”.

For the compound `CCNC(=O)[C@H]1O[C@@H](n2cnc3c(N)ncnc32)[C@H](O)[C@@H]1O` [NECA, 5-(N-ethylcarboxamido)adenosine], at A3 W243F-YFP [1], the “inhibition of FSK-stimulated [3H]-cAMP accumulation after 5 h agonist stimulation” value is reported as “reduced the maximal inhibition” and the Emax is 49.7 ± 2%. Further, at A3-YFP [2], the “agonist-mediated inhibition of SPAP production after PTx pre-incubation” value was “abolished” and the Emax was found to be 65.8 ± 8.2%. For the same compound, the “SPAP production in the absence of FSK (Gs coupling)” value on A3-YFP [2] (no FSK, with or without PTx) is given as “no increase in SPAP production”. Moreover, in assay [3] (60 min), the “Maximal BiFC (%)” value is reported as 100%. At A3-YFP [4], the “internalization of the receptor seen” value is “rapid internalization” and the “reduction in membrane fluorescence” value stood at 50%. The “internalization of the receptor seen” value on A3 W243F-YFP [5] is “rapid internalization”.
